Experimental data: ChEMBL document CHEMBL6078621, “Macrocyclic-based strategy in drug design: From lab to the clinic” (Eur J Med Chem, 2024)
Starred links: 1 amine or outer side, 2 acyl side, 3 side chain; linkers in the order of their positions; H or OH if unused. Positions of bridges follow the written chain, without caps; N, C: chain ends. Non-standard residues stand in square brackets, D forms with d. Residues, ends and D or L forms follow the SMILES beside them. *: point of attachment. Phe(4-Cl) = N[C@@H](Cc1ccc(Cl)cc1)C(=O)O; 2Thi = N[C@@H](Cc1cccs1)C(=O)O; Agmatine = N=C(N)NCCCCN*; X1 = O=C(CCC[*:2])[*:1]; Mpa = O=C(O)CCS; NEt2 = CCN(CC)*

Columns and labels:
[1] = Intrinsic clearance in human liver microsomes; format: ADME, Microsome
Huh-7 = experiment: Cytotoxicity against human Huh-7 cells assessed as inhibition of cell viability incubated for 24 hrs by MTT assay; format: functional
[2] = Plasma clearance in Sprague-Dawley rat at 1 mg/kg, iv measured upto 24 hrs by LC-MS/MS analysis; format: ADME, organism-based
[3] = AUC in Sprague-Dawley rat at 2 mg/kg, iv by LC-MS/MS analysis; format: ADME, organism-based; conditions: in vivo
[4] = Microsomal stability in human liver microsomes assessed as intrinsic clearance; format: ADME, Microsome
[5] = AUC in Sprague-Dawley rat at 10 mg/kg, po by LC-MS/MS analysis; format: ADME, organism-based; conditions: in vivo
[6] = Half life in rat; format: ADME; conditions: in vivo
[7] = Half life in mouse; format: ADME, organism-based; conditions: in vivo
[8] = Half life in dog; format: ADME, Canis lupus familiaris; conditions: in vivo
[9] = Oral bioavailability in Sprague-Dawley rat at 5 mg/kg by LC-MS/MS analysis; format: ADME, organism-based; conditions: in vivo
[10] = Clearance in Sprague-Dawley rat at 0.5 mg/kg, iv by LC-MS/MS analysis; format: ADME, organism-based; conditions: in vivo
[11] = AUC in Wistar rat; format: ADME; conditions: in vivo
[12] = Oral bioavailability in human; format: ADME, organism-based; conditions: in vivo
in vitro = conditions: human, liver microsomes
[13] = Solubility of the compound; format: physicochemical
[14] = Cmax in human at 8 mg/kg, po; format: ADME, organism-based; conditions: in vivo
[15] = Plasma protein binding in human; format: ADME, cell-free; conditions: read-out: PPB

COc1ccc2c(O[C@@H]3C[C@H]4C(=O)N[C@]5(C(=O)NS(=O)(=O)C6CC6)C[C@H]5/C=C\CCCCN(C)C(=O)[C@@H]4C3)cc(-c3ccccc3)nc2c1
CLH [1]: 46 µL/min/mg
CC50 (Huh-7): > 20 µM
clearance [2]: 46.5 mL/min/kg

COc1ccc2c(O[C@@H]3C[C@H]4C(=O)N[C@]5(C(=O)NS(=O)(=O)C6CC6)C[C@H]5/C=C\CCCCN(C)C(=O)[C@@H]4C3)cc(-c3nc(C(C)C)cs3)nc2c1C
AUC [3]: 5.21 µM·h
CLH [4]: 6 µL/min/mg
AUC [5]: 2.79 µM·h

C/C1=C/C=C/[C@H](C)[C@H](O)[C@@H](C)[C@@H](O)[C@@H](C)[C@H](OC(=O)O)[C@H](C)[C@@H](OO)/C=C/O[C@@]2(C)Oc3c(C)c(O)c4c(O)c(c(/C=N/N5CCC(N(C)C6([C@@H]7CCN(c8cc9c(C%10CC%10)cc(C(=O)O)c(=O)n9cc8F)C7)CC6)CC5)c(O)c4c3C2=O)CC1=O
half-life [6]: 24 min
half-life [7]: 24 min
half-life [8]: 96 min

CC(C)[C@@H]1NC(=O)[C@H](Cc2ccccc2)NC(=O)[C@H](Cc2ccc(O)cc2)NC(=O)CCSSC[C@@H](C(=O)N2CCC[C@H]2C(=O)N[C@H](CCCNC(=N)N)C(=O)NCC(N)=O)NC(=O)[C@H](CC(N)=O)NC1=O ([Mpa]YFVNCP[dR]G-NH2; disulfide 1-6)
bioavailability [9]: 31%
clearance [10]: 9.6 mL/min/kg

CC(C)[C@@H]1NC(=O)[C@H](Cc2cccs2)NC(=O)[C@H](Cc2ccc(Cl)cc2)NC(=O)CCCSC[C@@H](C(=O)N2CCC[C@H]2C(=O)NCCCCNC(=N)N)NC(=O)[C@H](CC(N)=O)NC1=O ([Phe(4-Cl)][2Thi]VNCP-Agmatine; linker N-5 via X1)
clearance [10]: 14 mL/min/kg

CCN(CC)C(=O)[C@@H](CCCNC(=N)N)NC(=O)[C@@H]1CCCN1C(=O)[C@@H]1CSCCCC(=O)N[C@@H](Cc2ccc(Cl)cc2)C(=O)N[C@@H](Cc2cccs2)C(=O)N[C@@H](C(C)C)C(=O)N[C@@H](CC(N)=O)C(=O)N1 ([Phe(4-Cl)][2Thi]VNCP[dR]-NEt2; linker N-5 via X1)
clearance [10]: 42 mL/min/kg

NC(=O)CC[C@@H]1NC(=O)[C@H](Cc2ccccc2)NC(=O)[C@H](Cc2ccc(O)cc2)NC(=O)CCSSC[C@@H](C(=O)N2CCC[C@H]2C(=O)N[C@H](CCCN=C(N)N)C(=O)NCC(N)=O)NC(=O)[C@H](CC(N)=O)NC1=O [DESMOPRESSIN]
bioavailability [9]: 41%

C[C@H]1Oc2cc(cnc2N)-c2c(nn(C)c2C#N)CN(C)C(=O)c2ccc(F)cc21 [LORLATINIB]
AUC [11]: 3.48 µM·h

C[C@@H]1CCC[C@H](n2cnc(-c3cc(Cl)ccc3-n3cc(Cl)nn3)cc2=O)c2cc(ccn2)-c2c(cnn2C(F)F)NC1=O [MILVEXIAN]
bioavailability [12]: 18%

C1=C/COCc2cc(ccc2OCCN2CCCC2)Nc2nccc(n2)-c2cccc(c2)COC/1 [PACRITINIB]
half-life (in vitro): > 60 min
solubility [13]: > 150 µg/mL

C[C@@H]1CN[C@@H](C2CC2)C(=O)N(C)[C@H](C)C(=O)N[C@H](Cc2ccc(F)cc2)C(=O)NCCCc2ccccc2O1 [ULIMORELIN]
Cmax [14]: 1400 nM

CN1C/C=C/CCOc2cccc(c2)-c2ccnc(n2)Nc2cccc(c2)C1 [ZOTIRACICLIB]
fraction unbound [15]: 0.001
